The source of these data is ChEMBL document CHEMBL1201862, “PubChem BioAssay data set” (2004).

Common to all, as to assay: NCI anticancer screen, dose series, 48 h
Test [1] concerns HCT-15.
Test [2] has as its system OVCAR-3.
The subject of test [3] is SK-OV-3.
Test [4] concerns SNB-78.
In test [5] the test system is UACC-62.
The test system of test [6] is 786-0.
The test system of test [7] is HOP-62.
The subject of test [8] is KM-20L2.
Test [9] deals with HCC 2998.
For test [10], the system named is HOP-92.
Test [11] concerns Malme-3M.
Test [12] has as its system DMS-114.
Test [13] relates to CCRF-CEM.
In test [14] the test system is MCF7.
In test [15] the test system is SK-MEL-5.
In test [16] the test system is Hs-578T.
For test [17], the system named is BT-549.
Test [18] relates to MDA-N.
The test system of test [19] is SR.
Test [20] has as its system XF498.

SMILES strings stand for the structures.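 A five-concentration, 48-hour dose response in 96-well plates underlies each endpoint, interpolated linearly between surrounding concentrations. GI50 is the concentration that inhibits growth by half.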 Activity calls are given as the source filed them. Cut-off read from the data, not from the text of the source: active = GI50 up to about 1.1 µM and inactive = higher.

Regarding `CC1=NC=C(O)c2ccccc2O1`, the GI50 in test [1] was over 100 µM; in [2] it was > 100 µM (inactive); in test [3], > 100 µM (inactive); in [4], > 100 µM (inactive); in test [5], > 100 µM (inactive); in [6], > 100 µM (inactive). The GI50 in test [7], in test [8], in test [9], in test [10], in [11] and in test [12] was > 100 µM (inactive) in each case. Also, the GI50 in test [13] is > 100 µM (inactive).

On to `COc1cc2c(cc1OC)-c1cc3ccccc3c[n+]1CC2`, for which the GI50 in test [2] is 51.5 µM (inactive); in test [14], 70.3 µM (inactive); in test [3], > 100 µM (inactive); in [5], > 100 µM (inactive); in test [7], > 100 µM (inactive); in test [15] it was 22.9 µM (inactive). In addition, the GI50 was > 100 µM (inactive) in [9]; 23.8 µM (inactive) in test [16]; 54.7 µM (inactive) in test [17]; > 100 µM (inactive) in test [10]; 25.4 µM (inactive) in [11]; > 100 µM (inactive) in [13]. The GI50 in test [18] was > 100 µM (inactive); in test [19], 68.2 µM (inactive).

Turning to `Oc1ccc2ccccc2c1/N=N/c1cccc2ccccc12`, the GI50 is over 100 µM in test [1]; > 100 µM (inactive) in test [2]; > 100 µM (inactive) in test [14]; 52.6 µM (inactive) in test [3]; > 100 µM (inactive) in [5]; 66.1 µM (inactive) in [6]. Moreover, the GI50 was 48.5 µM (inactive) in test [7]; > 100 µM (inactive) in test [15]; > 100 µM (inactive) in test [9]; 21.1 µM (inactive) in test [16]; > 100 µM (inactive) in [17]; > 100 µM (inactive) in test [10]. The GI50 was 91.6 µM (inactive) in test [11], > 100 µM (inactive) in test [13], > 100 µM (inactive) in test [18] and > 100 µM (inactive) in [19].

In the case of `N#Cc1ccc(-c2nc(C#N)c(N)o2)cc1`, the GI50 in [1] was over 10 µM; in test [14], > 10 µM (inactive); in test [3], > 10 µM (inactive); in test [5], > 10 µM (inactive); in [6], > 10 µM (inactive); in test [7] it was > 10 µM (inactive). Moreover, the GI50 in test [15], in test [9], in test [16], in test [17], in test [10] and in test [11] was > 10 µM (inactive) in each case. Moreover, the GI50 in test [13], in test [18] and in test [19] was > 10 µM (inactive) each time.

Regarding `Cc1cn(C2CC(O)C(CO)C2C)c(=O)[nH]c1=O` (centres undefined), the GI50 in [1] is over 100 µM; in test [2], > 100 µM (inactive); in [3], > 100 µM (inactive); in test [4] it was > 100 µM (inactive); in test [5], > 100 µM (inactive); in [20], > 100 µM (inactive). Further, the GI50 in test [7], in [8], in test [9], in [10], in [11] and in test [12] was > 100 µM (inactive) in each case. The GI50 in test [13] was > 100 µM (inactive).

On to `CCOC(=O)/C=C(\C)c1ccc(Cl)cc1`, for which the GI50 is over 100 µM in test [1]; > 100 µM (inactive) in [4]; > 100 µM (inactive) in test [20]; > 100 µM (inactive) in test [8]; > 100 µM (inactive) in [9]; > 100 µM (inactive) in test [10]. For the same compound, the GI50 in test [11], in test [12], in [13] and in test [19] was > 100 µM (inactive) throughout.

Turning to `O=C1CNc2cc(N3CCCCC3)ccc2N1`, the GI50 in [1] is over 100 µM; in [2], > 100 µM (inactive); in [14], > 100 µM (inactive); in test [3] it was > 100 µM (inactive); in test [5], 25.4 µM (inactive); in [7], > 100 µM (inactive). Besides, the GI50 in test [15] was 43.8 µM (inactive); in test [9], > 100 µM (inactive); in test [16] it was 4.43 µM (inactive); in test [17], > 100 µM (inactive); in test [10], > 100 µM (inactive); in [11] it was > 100 µM (inactive). In addition, the results for the GI50 in test [13], in [18] and in [19] were 99.5 µM (inactive), 75.2 µM (inactive) and 74.6 µM (inactive), respectively.

Turning to `O=C1C(=O)c2ccccc2C=C1[N+](=O)[O-]`, the GI50 in test [1] was 32.7 µM; in test [2], 23.4 µM (inactive); in test [14], 22.9 µM (inactive); in [3] it was > 100 µM (inactive); in test [5], 27.7 µM (inactive); in [6] it was 45.1 µM (inactive). For the same compound, the GI50 was > 100 µM (inactive) in [7]; 17 µM (inactive) in test [15]; 80.9 µM (inactive) in test [9]; 57.1 µM (inactive) in test [16]; > 100 µM (inactive) in test [17]; 55.8 µM (inactive) in [10]. Besides, the values for the GI50 in test [13], in test [18] and in test [19] were 27.9 µM (inactive), 19.7 µM (inactive) and 29.4 µM (inactive), respectively.

`COc1cc(O)c2c(c1)C(=O)c1cc(C)cc(O)c1C2=O` [PHYSCION]: the GI50 in test [2], in [3], in test [4], in [5], in [7] and in test [15] was > 100 µM (inactive) in each case. Moreover, the GI50 in test [8], in [9], in test [11], in [12], in test [13] and in test [19] was > 100 µM (inactive) throughout.

With `O=C(Nc1cccc(O)c1)C(=O)C(C(=O)c1ccccc1F)C1OC(=O)c2ccccc21` (centres undefined), the GI50 in [1] was 18.3 µM; in [3] it was 36.1 µM (inactive); in test [4], 24.2 µM (inactive); in [5], 16.9 µM (inactive); in test [7] it was 29.9 µM (inactive); in test [15], 36.1 µM (inactive). The GI50 is 25.7 µM (inactive) in [8]; 22.2 µM (inactive) in test [9]; 68.1 µM (inactive) in test [10]; 13.8 µM (inactive) in [12]; 18.3 µM (inactive) in test [13]; 24.9 µM (inactive) in [19].

`c1ccc(CCn2cncn2)cc1`: the GI50 is over 100 µM in test [1]; > 100 µM (inactive) in test [2]; > 100 µM (inactive) in test [3]; > 100 µM (inactive) in test [4]; > 100 µM (inactive) in test [5]; > 100 µM (inactive) in test [7]. For the same compound, the GI50 in test [15], in [8], in test [9], in test [10], in test [11] and in [12] was > 100 µM (inactive) in each case. Moreover, the GI50 in test [13] and in test [19] was > 100 µM (inactive) throughout.
